Measurements reported in patent US6472348B1, “Pyridone derivatives and herbicides” (Kumiai Chemical Industry Co., Ltd., priority 1996, dated 2002).

System: China jute (Ab)
Test: Test Example 6: crop plant selectivity by upland field soil treatment (soybean), herbicidal effects
Assay type: in vivo
Parameters: scale not given here
Conditions: dose 1.6 g ai/10a, 21st day after application
Protocol: (§1) (Test on Crop Plant Selectivity by Upland Field Soil Treatment)
(§2) In a plastic pot (surface area: 600 cm^2) filled with sand, soybean (Gl), Diaitaria ciliaris (Di), green foxtail (Se), Johnsongrass (So), pale smartweed (Po), slender amaranth (Am), common lambsquarters (Ch) and China jute (Ab) were sown and covered with soil. […] The plants were then cultured in a green house, and the evaluation of the herbicidal effects and phytotoxicity was conducted on the 21st day after the application in accordance with the standards as identified in Table 47. Symbol—represents “not tested”.

Structure (SMILES) | Herbicidal effects Ab
Cc1cc(-c2ccc(C(F)(F)F)n(C)c2=O)c(F)cc1Cl [1-90] | 5

Same assay, conditions: dose 6.3 g ai/10a, 21st day after application

Structure (SMILES) | Herbicidal effects Ab
Cc1cc(-c2ccc(C(F)(F)F)n(C)c2=O)c(F)cc1Cl [1-90] | 5

System: slender amaranth (Am)
Test: as above
Assay type: in vivo
Parameters: scale not given here
Conditions: dose 1.6 g ai/10a, 21st day after application
Protocol: as §1, §2

Structure (SMILES) | Herbicidal effects Am
Cc1cc(-c2ccc(C(F)(F)F)n(C)c2=O)c(F)cc1Cl [1-90] | 5

Same assay, conditions: dose 6.3 g ai/10a, 21st day after application

Structure (SMILES) | Herbicidal effects Am
Cc1cc(-c2ccc(C(F)(F)F)n(C)c2=O)c(F)cc1Cl [1-90] | 5

System: pale smartweed (Po)
Test: as above
Assay type: in vivo
Parameters: scale not given here
Conditions: dose 1.6 g ai/10a, 21st day after application
Protocol: as §1, §2

Structure (SMILES) | Herbicidal effects Po
Cc1cc(-c2ccc(C(F)(F)F)n(C)c2=O)c(F)cc1Cl [1-90] | 5

Same assay, conditions: dose 6.3 g ai/10a, 21st day after application

Structure (SMILES) | Herbicidal effects Po
Cc1cc(-c2ccc(C(F)(F)F)n(C)c2=O)c(F)cc1Cl [1-90] | 5

System: wheat (Tr)
Test: Test Example 5: crop plant selectivity by upland field soil treatment (wheat), phytotoxicity
Assay type: in vivo
Parameters: scale not given here
Conditions: dose 6.3 g ai/10a, 21st day after application
Protocol: as §1
(§3) In a plastic pot (surface area: 600 cm^2) filled with sand, wheat (Tr), Diaitaria ciliaris (Di), green foxtail (Se), pale smartweed (Po), slender amaranth (Am), common lambsquarters (Ch) and China jute (Ab) were sown and covered with soil. […] The plants were then cultured in a green house, and the evaluation of the herbicidal effects and phytotoxicity was conducted on the 21st day after the application in accordance with the standards as identified in Table 47. Symbol—represents “not tested”.

Structure (SMILES) | Phytotoxicity Tr
Cc1cc(-c2ccc(C(F)(F)F)n(C)c2=O)c(F)cc1Cl [1-90] | 1

System: green foxtail (Se)
Test: Test Example 4: crop plant selectivity by upland field soil treatment (cotton), herbicidal effects
Assay type: in vivo
Parameters: scale not given here
Conditions: dose 6.3 g ai/10 a, evaluated 21st day after application
Protocol: as §1
(§4) In a plastic pot (surface area: 600 cm^2) filled with sand, cotton (Go), Diaitaria ciliaris (Di), green foxtail (Se), pale smartweed (Po), slender amaranth (Am), common lambsquarters (Ch) and China jute (Ab) were sown and covered with soil. […] The plants were then cultured in a green house, and the evaluation of the herbicidal effects and phytotoxicity was conducted on the 21st day after the application in accordance with the standards as identified in Table 47. Symbol—represents “not tested”.

Structure (SMILES) | Herbicidal effects Se
Cc1cc(-c2ccc(C(F)(F)F)n(C)c2=O)c(F)cc1Cl [1-90] | 5

System: common lambsquarters (Ch)
Test: as above
Assay type: in vivo
Parameters: scale not given here
Conditions: dose 6.3 g ai/10 a, evaluated 21st day after application
Protocol: as §1, §4

Structure (SMILES) | Herbicidal effects Ch
Cc1cc(-c2ccc(C(F)(F)F)n(C)c2=O)c(F)cc1Cl [1-90] | 5

System: China jute (Ab)
Test: as above
Assay type: in vivo
Parameters: scale not given here
Conditions: dose 6.3 g ai/10 a, evaluated 21st day after application
Protocol: as §1, §4

Structure (SMILES) | Herbicidal effects Ab
Cc1cc(-c2ccc(C(F)(F)F)n(C)c2=O)c(F)cc1Cl [1-90] | 5

System: slender amaranth (Am)
Test: as above
Assay type: in vivo
Parameters: scale not given here
Conditions: dose 6.3 g ai/10 a, evaluated 21st day after application
Protocol: as §1, §4

Structure (SMILES) | Herbicidal effects Am
Cc1cc(-c2ccc(C(F)(F)F)n(C)c2=O)c(F)cc1Cl [1-90] | 5

System: pale smartweed (Po)
Test: as above
Assay type: in vivo
Parameters: scale not given here
Conditions: dose 6.3 g ai/10 a, evaluated 21st day after application
Protocol: as §1, §4

Structure (SMILES) | Herbicidal effects Po
Cc1cc(-c2ccc(C(F)(F)F)n(C)c2=O)c(F)cc1Cl [1-90] | 5

System: soybean (Gl)
Test: Test Example 6: crop plant selectivity by upland field soil treatment (soybean), phytotoxicity
Assay type: in vivo
Parameters: scale not given here
Conditions: dose 1.6 g ai/10a, 21st day after application
Protocol: as §1, §2

Structure (SMILES) | Phytotoxicity Gl
Cc1cc(-c2ccc(C(F)(F)F)n(C)c2=O)c(F)cc1Cl [1-90] | 2

Same assay, conditions: dose 6.3 g ai/10a, 21st day after application

Structure (SMILES) | Phytotoxicity Gl
Cc1cc(-c2ccc(C(F)(F)F)n(C)c2=O)c(F)cc1Cl [1-90] | 2

System: common lambsquarters (Ch)
Test: Test Example 3: herbicidal effects by upland field foliage treatment
Assay type: in vivo
Parameters: scale not given here
Conditions: 100 g of the active ingredient per 10 ares, evaluated on the 14th day after treatment
Outline: (§5)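 Weeds sown in sand-filled pots and grown 2 weeks in a greenhouse before foliage treatment. Plants then kept in the greenhouse; herbicidal effect scored on day 14 after treatment against a graded standard scale.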

Structure (SMILES) | Herbicidal effects Ch
Cc1cc(-c2ccc(C(F)(F)F)n(C)c2=O)c(F)cc1Cl [1-90] | 5

System: slender amaranth (Am)
Test: as above
Assay type: in vivo
Parameters: scale not given here
Conditions: 100 g of the active ingredient per 10 ares, evaluated on the 14th day after treatment
Outline: as §5

Structure (SMILES) | Herbicidal effects Am
Cc1cc(-c2ccc(C(F)(F)F)n(C)c2=O)c(F)cc1Cl [1-90] | 5

System: Diaitaria ciliaris (Di)
Test: as above
Assay type: in vivo
Parameters: scale not given here
Conditions: 100 g of the active ingredient per 10 ares, evaluated on the 14th day after treatment
Outline: as §5

Structure (SMILES) | Herbicidal effects Di
Cc1cc(-c2ccc(C(F)(F)F)n(C)c2=O)c(F)cc1Cl [1-90] | 5

System: rice flatsedge (Ci)
Test: as above
Assay type: in vivo
Parameters: scale not given here
Conditions: 100 g of the active ingredient per 10 ares, evaluated on the 14th day after treatment
Outline: as §5

Structure (SMILES) | Herbicidal effects Ci
Cc1cc(-c2ccc(C(F)(F)F)n(C)c2=O)c(F)cc1Cl [1-90] | 5

System: pale smartweed (Po)
Test: as above
Assay type: in vivo
Parameters: scale not given here
Conditions: 100 g of the active ingredient per 10 ares, evaluated on the 14th day after treatment
Outline: as §5

Structure (SMILES) | Herbicidal effects Po
Cc1cc(-c2ccc(C(F)(F)F)n(C)c2=O)c(F)cc1Cl [1-90] | 5

System: barnyardgrass (Ec)
Test: as above
Assay type: in vivo
Parameters: scale not given here
Conditions: 100 g of the active ingredient per 10 ares, evaluated on the 14th day after treatment
Outline: as §5

Structure (SMILES) | Herbicidal effects Ec
Cc1cc(-c2ccc(C(F)(F)F)n(C)c2=O)c(F)cc1Cl [1-90] | 5

System: green foxtail (Se)
Test: Test Example 5: crop plant selectivity by upland field soil treatment (wheat), herbicidal effects
Assay type: in vivo
Parameters: scale not given here
Conditions: dose 6.3 g ai/10a, 21st day after application
Protocol: as §1, §3

Structure (SMILES) | Herbicidal effects Se
Cc1cc(-c2ccc(C(F)(F)F)n(C)c2=O)c(F)cc1Cl [1-90] | 5

System: common lambsquarters (Ch)
Test: as above
Assay type: in vivo
Parameters: scale not given here
Conditions: dose 6.3 g ai/10a, 21st day after application
Protocol: as §1, §3

Structure (SMILES) | Herbicidal effects Ch
Cc1cc(-c2ccc(C(F)(F)F)n(C)c2=O)c(F)cc1Cl [1-90] | 5

System: China jute (Ab)
Test: as above
Assay type: in vivo
Parameters: scale not given here
Conditions: dose 6.3 g ai/10a, 21st day after application
Protocol: as §1, §3

Structure (SMILES) | Herbicidal effects Ab
Cc1cc(-c2ccc(C(F)(F)F)n(C)c2=O)c(F)cc1Cl [1-90] | 5

System: slender amaranth (Am)
Test: as above
Assay type: in vivo
Parameters: scale not given here
Conditions: dose 6.3 g ai/10a, 21st day after application
Protocol: as §1, §3

Structure (SMILES) | Herbicidal effects Am
Cc1cc(-c2ccc(C(F)(F)F)n(C)c2=O)c(F)cc1Cl [1-90] | 5

System: pale smartweed (Po)
Test: as above
Assay type: in vivo
Parameters: scale not given here
Conditions: dose 6.3 g ai/10a, 21st day after application
Protocol: as §1, §3

Structure (SMILES) | Herbicidal effects Po
Cc1cc(-c2ccc(C(F)(F)F)n(C)c2=O)c(F)cc1Cl [1-90] | 5

System: cotton (Go)
Test: Test Example 4: crop plant selectivity by upland field soil treatment (cotton), phytotoxicity
Assay type: in vivo
Parameters: scale not given here
Conditions: dose 6.3 g ai/10 a, evaluated 21st day after application
Protocol: as §1, §4

Structure (SMILES) | Phytotoxicity Go
Cc1cc(-c2ccc(C(F)(F)F)n(C)c2=O)c(F)cc1Cl [1-90] | 1
